Measured values as given in article PMC8129716 (CPT: Pharmacometrics & Systems Pharmacology, 2021).

Experiments:
[1] = logP; type: physicochemical; settings: octanol/water
[2] = pKa; type: physicochemical
[3] = system: CYP2C8; test: CYP2C8 induction in vitro; type: in vitro ADME, human
[4] = system: CYP2C9; test: CYP2C9 induction in vitro; type: in vitro ADME, human
[5] = system: CYP2C19; test: CYP2C19 induction in vitro; type: in vitro ADME, human
[6] = biological target: CYP2D6 (Homo sapiens, UniProt P10635); test: reversible competitive CYP inhibition; type: in vitro ADME; settings: read-out: Ki CYP2D6; Ki=IC50/2
[7] = human ADME study, single radiolabeled dose 320 mg; type: in vivo
[8] = biological target: P‐gp (Homo sapiens, UniProt P08183); test: transporter substrate assessment; type: in vitro ADME
[9] = biological target: T1, OAT1 (Homo sapiens, UniProt Q4U2R8); test: transporter substrate/inhibitor assessment; type: in vitro ADME
T1 sequence (Q4U2R8 1-563): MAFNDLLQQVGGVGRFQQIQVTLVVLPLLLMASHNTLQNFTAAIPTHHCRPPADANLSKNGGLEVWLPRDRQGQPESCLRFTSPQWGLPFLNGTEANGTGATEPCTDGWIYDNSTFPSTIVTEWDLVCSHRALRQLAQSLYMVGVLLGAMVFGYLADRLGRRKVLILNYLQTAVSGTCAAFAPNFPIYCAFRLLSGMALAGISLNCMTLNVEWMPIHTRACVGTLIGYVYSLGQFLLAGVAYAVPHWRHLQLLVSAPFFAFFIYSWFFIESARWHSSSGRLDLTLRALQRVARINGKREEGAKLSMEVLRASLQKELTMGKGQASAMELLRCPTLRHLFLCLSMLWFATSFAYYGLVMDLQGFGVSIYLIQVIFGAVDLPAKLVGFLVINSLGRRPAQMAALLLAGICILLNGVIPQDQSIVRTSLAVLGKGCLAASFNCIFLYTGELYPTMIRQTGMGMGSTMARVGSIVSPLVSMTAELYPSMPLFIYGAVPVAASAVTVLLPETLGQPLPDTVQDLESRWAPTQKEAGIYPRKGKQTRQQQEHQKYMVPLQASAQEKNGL

[10] = biological target: T2, OCT2 (Homo sapiens, UniProt O15244); test: transporter substrate/inhibitor assessment; type: in vitro ADME
T2 sequence (O15244 1-555): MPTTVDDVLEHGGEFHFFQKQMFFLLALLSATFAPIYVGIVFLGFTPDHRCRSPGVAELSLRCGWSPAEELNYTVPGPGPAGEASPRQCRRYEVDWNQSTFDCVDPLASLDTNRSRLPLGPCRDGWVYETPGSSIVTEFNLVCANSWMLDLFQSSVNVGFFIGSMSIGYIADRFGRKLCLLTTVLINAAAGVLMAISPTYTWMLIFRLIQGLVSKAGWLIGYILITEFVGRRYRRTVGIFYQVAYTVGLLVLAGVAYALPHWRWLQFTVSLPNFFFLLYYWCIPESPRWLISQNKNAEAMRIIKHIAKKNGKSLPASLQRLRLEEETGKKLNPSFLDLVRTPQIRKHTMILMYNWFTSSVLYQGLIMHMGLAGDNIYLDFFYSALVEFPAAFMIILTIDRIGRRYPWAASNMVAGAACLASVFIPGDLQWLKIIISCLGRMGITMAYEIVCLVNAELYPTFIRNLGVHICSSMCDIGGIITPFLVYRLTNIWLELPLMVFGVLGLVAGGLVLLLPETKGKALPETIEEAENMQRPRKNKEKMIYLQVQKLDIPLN

[11] = biological target: T3, OATP1B1 (Homo sapiens, UniProt Q9Y6L6); test: transporter substrate/inhibitor assessment; type: in vitro ADME
T3 sequence (Q9Y6L6 1-691): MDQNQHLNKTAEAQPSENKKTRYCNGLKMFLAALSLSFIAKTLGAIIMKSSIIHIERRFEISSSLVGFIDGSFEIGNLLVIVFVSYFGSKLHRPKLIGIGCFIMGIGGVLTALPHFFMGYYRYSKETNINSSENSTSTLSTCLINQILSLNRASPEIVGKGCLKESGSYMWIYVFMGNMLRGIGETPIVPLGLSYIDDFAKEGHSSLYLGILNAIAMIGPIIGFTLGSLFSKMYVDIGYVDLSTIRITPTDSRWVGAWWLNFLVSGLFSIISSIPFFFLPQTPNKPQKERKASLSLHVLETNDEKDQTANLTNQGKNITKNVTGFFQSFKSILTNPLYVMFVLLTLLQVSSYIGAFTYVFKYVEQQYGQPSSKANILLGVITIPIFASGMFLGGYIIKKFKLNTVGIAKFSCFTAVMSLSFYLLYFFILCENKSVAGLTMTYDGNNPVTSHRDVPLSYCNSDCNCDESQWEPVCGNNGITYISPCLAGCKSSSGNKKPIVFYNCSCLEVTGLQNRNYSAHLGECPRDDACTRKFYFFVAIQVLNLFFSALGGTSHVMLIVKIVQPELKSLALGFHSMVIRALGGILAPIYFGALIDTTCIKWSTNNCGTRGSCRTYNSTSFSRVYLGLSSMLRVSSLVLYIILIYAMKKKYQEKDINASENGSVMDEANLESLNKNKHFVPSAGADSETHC

[12] = population PK analysis; cited from earlier work
[13] = single radiolabeled 320 mg, healthy subjects

Sequence of P‐gp (P08183 whole entry): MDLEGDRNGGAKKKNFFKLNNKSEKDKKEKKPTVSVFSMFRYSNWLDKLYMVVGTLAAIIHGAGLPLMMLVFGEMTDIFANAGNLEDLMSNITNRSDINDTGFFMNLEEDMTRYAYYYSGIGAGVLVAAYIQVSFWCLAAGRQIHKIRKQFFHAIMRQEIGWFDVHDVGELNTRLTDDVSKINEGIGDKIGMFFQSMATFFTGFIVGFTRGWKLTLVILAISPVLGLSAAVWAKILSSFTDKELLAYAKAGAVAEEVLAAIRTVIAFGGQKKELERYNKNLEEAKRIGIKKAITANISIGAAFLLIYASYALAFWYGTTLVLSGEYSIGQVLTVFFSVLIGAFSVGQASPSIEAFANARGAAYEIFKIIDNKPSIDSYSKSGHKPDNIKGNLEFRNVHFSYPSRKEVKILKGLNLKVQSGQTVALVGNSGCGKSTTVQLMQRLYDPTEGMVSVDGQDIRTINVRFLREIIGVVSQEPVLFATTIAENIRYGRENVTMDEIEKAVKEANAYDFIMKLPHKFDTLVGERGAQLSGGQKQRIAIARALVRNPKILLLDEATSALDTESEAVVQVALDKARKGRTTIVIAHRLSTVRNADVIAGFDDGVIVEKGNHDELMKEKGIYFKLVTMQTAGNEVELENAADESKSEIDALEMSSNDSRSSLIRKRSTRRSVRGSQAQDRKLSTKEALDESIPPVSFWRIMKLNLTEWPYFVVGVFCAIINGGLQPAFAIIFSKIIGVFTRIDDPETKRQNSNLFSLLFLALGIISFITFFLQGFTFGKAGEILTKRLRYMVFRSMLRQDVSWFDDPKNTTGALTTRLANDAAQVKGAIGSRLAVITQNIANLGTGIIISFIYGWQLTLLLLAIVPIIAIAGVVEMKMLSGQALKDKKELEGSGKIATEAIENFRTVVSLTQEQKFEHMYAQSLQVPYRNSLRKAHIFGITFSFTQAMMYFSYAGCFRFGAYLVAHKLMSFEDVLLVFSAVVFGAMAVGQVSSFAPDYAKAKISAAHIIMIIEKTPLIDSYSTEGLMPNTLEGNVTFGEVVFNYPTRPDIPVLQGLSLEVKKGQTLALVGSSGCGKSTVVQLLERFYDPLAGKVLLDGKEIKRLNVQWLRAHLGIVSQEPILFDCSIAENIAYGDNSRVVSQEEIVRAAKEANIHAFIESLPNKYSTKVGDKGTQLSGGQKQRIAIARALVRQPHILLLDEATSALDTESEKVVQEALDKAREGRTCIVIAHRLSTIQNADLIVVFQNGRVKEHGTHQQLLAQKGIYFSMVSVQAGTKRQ
Sequence of CYP2D6 (P10635 whole entry): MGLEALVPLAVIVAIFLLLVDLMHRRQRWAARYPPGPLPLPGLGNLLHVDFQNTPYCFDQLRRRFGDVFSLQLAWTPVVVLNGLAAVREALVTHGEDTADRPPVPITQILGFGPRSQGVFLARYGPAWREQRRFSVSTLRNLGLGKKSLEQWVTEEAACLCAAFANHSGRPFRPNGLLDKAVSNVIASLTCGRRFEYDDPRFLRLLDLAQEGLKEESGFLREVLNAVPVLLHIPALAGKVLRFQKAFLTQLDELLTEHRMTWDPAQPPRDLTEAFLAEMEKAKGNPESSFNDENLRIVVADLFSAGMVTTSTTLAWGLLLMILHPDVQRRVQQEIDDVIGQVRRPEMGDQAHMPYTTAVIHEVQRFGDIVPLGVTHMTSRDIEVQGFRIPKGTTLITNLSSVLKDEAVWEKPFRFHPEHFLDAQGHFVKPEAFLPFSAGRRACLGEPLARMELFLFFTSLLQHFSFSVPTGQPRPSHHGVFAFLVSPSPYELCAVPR

C=CC(=O)N1CCC([C@@H]2CCNc3c(C(N)=O)c(-c4ccc(Oc5ccccc5)cc4)nn32)CC1 [zanubrutinib, Zanubrutinib]
logP [1]: 4.2
pKa [2]: 3.3
Ki [6]: 36400 nM
zanubrutinib absorbed ([7]; inferred from unchanged drug in feces): 60–70%
dose excreted renally as parent drug ([7]; single radiolabeled 320 mg): 0.4 % of the dose
unchanged zanubrutinib in feces ([7]; single radiolabeled 320 mg): 38 % of the dose
dose recovered in feces [7, 13]: approximately 87%
dose recovered in urine [7, 13]: ~8%
P-gp substrate [8]: likely to be a substrate
substrate or inhibitor of OAT1 [9]: not a substrate or inhibitor
substrate or inhibitor of OCT2 [10]: not a substrate or inhibitor
substrate or inhibitor of OATP1B1 [11]: not a substrate or inhibitor
AUC lower in patients compared with healthy volunteers [12]: 43.7%
Cmax lower in patients compared with healthy volunteers [12]: 26.8%
